Experimental data published in PubChem BioAssay (NCI).
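All cell lines were grown in 96-well plates and treated with compound for 48 hours. At the TGI there is no net growth.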

Columns and labels:
Assay in all cases: growth of human tumour cells (NCI), 48 h
[1] = tested on: 786-0 renal
[2] = tested on: A498 renal
[3] = tested on: A549 NSCLC
[4] = tested on: ACHN renal
[5] = tested on: CAKI-1 renal
[6] = tested on: CCRF-CEM leukemia
[7] = tested on: COLO 205 colon
[8] = tested on: EKVX NSCLC
[9] = tested on: HCT-116 colon
[10] = tested on: HOP-62 NSCLC
[11] = tested on: HOP-92 NSCLC
[12] = tested on: HS 578T breast
[13] = tested on: HT29 colon
[14] = tested on: KM12 colon
[15] = tested on: MALME-3M melanoma
[16] = tested on: MDA-MB-435
[17] = tested on: MDA-N
[18] = tested on: NCI-H23 lung
[19] = tested on: NCI/ADR-RES ovarian
[20] = tested on: OVCAR-4 ovarian
[21] = tested on: OVCAR-5 ovarian
[22] = tested on: PC-3 prostate
[23] = tested on: RPMI-8226 leukemia
[24] = tested on: RXF 393 renal
[25] = tested on: SF-268 CNS
[26] = tested on: SF-539 CNS
[27] = tested on: SK-MEL-2 melanoma
[28] = tested on: SK-MEL-28 melanoma
[29] = tested on: SK-MEL-5 melanoma
[30] = tested on: SK-OV-3 ovarian
[31] = tested on: SN12C renal
[32] = tested on: SNB-75 CNS
[33] = tested on: SW-620 colon
[34] = tested on: T-47D breast
[35] = tested on: TK-10 renal
[36] = tested on: UACC-257 melanoma
[37] = tested on: UACC-62 melanoma
[38] = tested on: UO-31 renal
[39] = tested on: DU-145 prostate
[40] = tested on: HCC-2998 colon
[41] = tested on: HCT-15 colon
[42] = tested on: HL-60(TB) leukemia
[43] = tested on: IGROV1 ovarian
[44] = tested on: K-562 leukemia
[45] = tested on: LOX IMVI melanoma
[46] = tested on: M14 melanoma
[47] = tested on: MCF7 breast
[48] = tested on: MDA-MB-231 breast
[49] = tested on: MOLT-4 leukemia
[50] = tested on: NCI-H226 lung
[51] = tested on: NCI-H460 lung
[52] = tested on: NCI-H522 lung
[53] = tested on: OVCAR-3 ovarian
[54] = tested on: OVCAR-8 ovarian
[55] = tested on: SF-295 CNS
[56] = tested on: SNB-19 CNS
[57] = tested on: SR leukemia
[58] = tested on: U251 CNS

`NC(N)=N/N=C/c1c(-c2ccc([N+](=O)[O-])cc2)nc2sc(Cl)cn12` gave a TGI [1] of 0.605 µM, a TGI [2] of 2.77 µM and a TGI [3] of 3.09 µM. The TGI [4] was 2.42 µM, the TGI [5] was 3.76 µM and the TGI [6] was 1.14 µM. For the same compound, the TGI [7] was 2.06 µM, the TGI [8] was 1.53 µM and the TGI [9] was 0.575 µM. It also gave a TGI [10] of 3.11 µM, a TGI [11] of 4.05 µM and a TGI [12] of over 100 µM. It also gave a TGI [13] of 3 µM, a TGI [14] of 2.4 µM and a TGI [15] of 3.63 µM. The TGI [16] was 2.33 µM, the TGI [17] was 3.12 µM and the TGI [18] was 2.69 µM. It also gave a TGI [19] of 3.45 µM, a TGI [20] of 0.954 µM and a TGI [21] of 2.69 µM. It also gave a TGI [22] of 2.04 µM, a TGI [23] of 4 µM and a TGI [24] of 3.8 µM. For the same compound, the TGI [25] was 3.31 µM, the TGI [26] was 4.01 µM and the TGI [27] was 3.2 µM. It also gave a TGI [28] of 3.38 µM, a TGI [29] of 3.6 µM and a TGI [30] of 3.31 µM. It also gave a TGI [31] of 3.05 µM, a TGI [32] of 1.3 µM and a TGI [33] of 1.46 µM. For the same compound, the TGI [34] was over 100 µM, the TGI [35] was 3.69 µM and the TGI [36] was 1.41 µM. For the same compound, the TGI [37] was 3.01 µM and the TGI [38] was 2.68 µM.

`COc1ccc(NC(=O)CSc2nc(C)nc3c2sc(=S)n3-c2ccccc2)cc1` gave a TGI [1] of over 10 µM, a TGI [2] of over 10 µM and a TGI [3] of over 10 µM. The TGI [4] was over 10 µM, the TGI [5] was over 10 µM and the TGI [6] was over 10 µM. The TGI [7] was over 10 µM, the TGI [39] was over 10 µM and the TGI [8] was over 10 µM. It also gave a TGI [40] of over 10 µM, a TGI [9] of over 10 µM and a TGI [41] of over 10 µM. For the same compound, the TGI [42] was over 10 µM, the TGI [10] was over 10 µM and the TGI [11] was over 10 µM. It also gave a TGI [12] of over 10 µM, a TGI [13] of over 10 µM and a TGI [43] of over 10 µM. For the same compound, the TGI [44] was over 10 µM, the TGI [14] was over 10 µM and the TGI [45] was over 10 µM. For the same compound, the TGI [46] was over 10 µM, the TGI [15] was over 10 µM and the TGI [47] was over 10 µM. It also gave a TGI [48] of over 10 µM, a TGI [16] of over 10 µM and a TGI [17] of over 10 µM. It also gave a TGI [49] of over 10 µM, a TGI [50] of over 10 µM and a TGI [18] of over 10 µM. It also gave a TGI [51] of over 10 µM, a TGI [52] of over 10 µM and a TGI [19] of over 10 µM. The TGI [53] was over 10 µM, the TGI [20] was 9.29 µM and the TGI [21] was over 10 µM. It also gave a TGI [54] of over 10 µM, a TGI [22] of over 10 µM and a TGI [23] of over 10 µM. It also gave a TGI [24] of over 10 µM, a TGI [25] of over 10 µM and a TGI [55] of over 10 µM. It also gave a TGI [26] of 4.97 µM, a TGI [28] of over 10 µM and a TGI [29] of over 10 µM. It also gave a TGI [30] of over 10 µM, a TGI [31] of over 10 µM and a TGI [56] of over 10 µM. For the same compound, the TGI [32] was 8.21 µM, the TGI [57] was over 10 µM and the TGI [33] was over 10 µM. For the same compound, the TGI [34] was over 10 µM, the TGI [35] was over 10 µM and the TGI [58] was over 10 µM. For the same compound, the TGI [36] was over 10 µM and the TGI [37] was over 10 µM.
